According to patent publication US8034827B2, “Phenanthridine derivatives as bradykinin antagonists” (Richter Gegeon Nyrt., priority 2005, dated 2011):

What was measured:
[1] = molecular target: T1, recombinant human B1 receptors (Homo sapiens, UniProt P46663); experiment: Antagonist potency by measurement of cytosolic calcium ion concentration in CHO-B1 cells (agonist LysDABK); type: cell-based; settings: inhibition of LysDABK (EC80)-evoked [Ca2+]i elevation, fluo-4, read-out: B1 func.
T1 construct: host or cells: CHO (CHO-B1)
T1 sequence (P46663 1-353): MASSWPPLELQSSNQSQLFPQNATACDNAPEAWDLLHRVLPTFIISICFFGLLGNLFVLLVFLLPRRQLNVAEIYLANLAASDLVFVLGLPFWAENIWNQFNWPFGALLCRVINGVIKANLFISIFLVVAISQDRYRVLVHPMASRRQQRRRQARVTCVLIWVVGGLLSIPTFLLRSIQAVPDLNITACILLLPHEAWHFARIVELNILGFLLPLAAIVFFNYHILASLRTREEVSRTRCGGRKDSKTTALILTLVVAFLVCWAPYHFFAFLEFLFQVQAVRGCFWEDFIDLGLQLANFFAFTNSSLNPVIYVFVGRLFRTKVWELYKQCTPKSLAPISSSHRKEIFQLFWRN
Procedure: Assessment of Antagonist Potency at B1 and B2 Receptors In Vitro by Measurement of Cytosolic Calcium Ion Concentration with a Plate Reader Fluorimeter in Cells Expressing Recombinant Human B1 or B2 Receptors
Chinese hamster ovary (CHO) cells stably expressing recombinant human B1 (CHO-B1, Euroscreen) or B2 (CHO-B2, Perkin-Elmer) receptors were cultured in Dulbecco's Modified Eagle's Medium (DMEM) containing 10% Fetal Calf Serum (FCS), 100 U/ml penicillin, 0.1 mg/ml streptomycin, 0.25 μg/ml amphotericin B, 1% Minimum Essential Medium Eagle (MEM), non essential amino acid solution, 600 μg/ml G418, 1% pyruvate (for the B2 cell line). Cells were kept at 37° C. in a humidified incubator in an atmosphere of 5% CO2/95% air and were passaged 1:4 three times a week. Cells were plated at 1.5-2.5×10^4 cell/well on standard 96-well microplates, measurements of cytosolic calcium ion concentration ([Ca^2+]i) were carried out 1-2 days after cell plating.
Measurements of [Ca^2+]i were carried out on CHO-B1 and CHO-B2 cells stably expressing human B1 and B2 receptors, respectively. Cells were grown in standard 96-well microplates and before the measurement were loaded with a fluorescent Ca^2+-sensitive dye, fluo-4/AM (2 μM): after removing the culture medium the dye was added to the cells (dissolved in assay buffer: 145 mM NaCl, 5 mM KCl, 2 mM MgCl2, 2 mM CaCl2, 10 mM HEPES, 20 mM D-glucose, 2 mM probenecid, 100 μl/well) and cells were incubated at 37° C. in a humidified incubator in an atmosphere of 5% CO2/95% air for 40-120 min. To stop dye loading cells were washed twice with assay buffer. After washing, various concentrations of the test compounds (diluted in extracellular medium from a DMSO stock solution, final DMSO concentration was <0.1%) or buffer were added to each well depending on the experimental setup. After incubation at 37° C. for 20-25 min. baseline and agonist-evoked changes of [Ca^2+]i were measured column by column with a plate reader fluorimeter (Fluoroskan Ascent, Labsystems). Excitation and detection of emission was carried out from the bottom of the plate. Filters used for Fluo-4: excitation filter −485 nm, emission filter −538 nm. The whole measurement process was performed at 37° C. and was controlled by custom software. Inhibitory potency of the test compounds was assessed by measuring the reduction in the agonist-evoked [Ca^2+]i-elevation in the presence of different concentrations of the compounds. The agonists were LysDABK for CHO-B1, and bradykinin for CHO-B2 cells. Agonists were applied at an EC80 concentration, the EC80-values were derived from daily determined dose-response curves. Fluorescence data were expressed as ΔF/F (fluorescence change normalized to baseline). All treatments on a single plate were measured in multiple wells. Data from all wells with the same treatment were averaged and the average values were used for analysis. Inhibitory potency of a compound at a single concentration point was expressed as percent inhibition of the control agonist response. Sigmoidal concentration-inhibition curves were fitted to the data (derived from at least three independent experiments) and IC50-values were determined as the concentration that produces half of the maximal inhibition caused by the compound.

[2] = molecular target: T2, human recombinant bradykinin1 receptors (Homo sapiens, UniProt P46663); experiment: Human recombinant bradykinin B1 receptor binding; settings: CHO cell membranes, [3H]-[Des-Arg10] Kallidin radioligand
T2 construct: host or cells: CHO cells
T2 sequence (P46663 1-353): T1 sequence (P46663 1-353)
Procedure: Receptor Binding Assays 1. Human Recombinant Bradykinin B1 Receptor Binding
Binding assays were carried out on human recombinant bradykinin1 receptors (expressed in CHO cells) according to the Euroscreen Technical Data Sheet (Cat. No.: ES-091). 20 μg protein/tube was incubated with [3,4-prolyl-3,4-^3H(N)]-[Des-Arg^10] Kallidin as radioligand. Non specific binding was determined in the presence of 10 μM Lys-des-Arg^9-Bradykinin. The final incubation volume was 250 μl. Samples were incubated for 15 min. at 25° C. then were rapidly vacuum filtered through GF/B filters presoaked for at least 1 h in 0.5% PEI. Radioactivity was determined by liquid scintillation spectroscopy.

| Structure (SMILES) | IC50 [1] | Ki [2] |
| --- | --- | --- |
| CC(C)N1CCN(C(=O)C2CCN(S(=O)(=O)c3ccc(NCC(c4ccccc4)c4ccccc4)c(C(=O)N4CCOCC4)c3)CC2)CC1 [Example 70002460, 4-{2-[(2,2-diphenyl-ethyl)-amino]-5-{[4-/(4-<1-methyl-ethyl>-1-piperazinyl)-carbonyl/-1-piperidinyl]-sulfonyl}-benzoyl}-morpholine, reference compound] | 100 to 500 nM | < 100 nM |
| O=C(C[C@@H]1C(=O)Nc2ccccc2N1S(=O)(=O)c1ccc(Cl)c(Cl)c1)NCCc1ccc(C2=NCCN2)cc1 [Example 70004287, 2-[1-(3,4-dichloro-benzenesulfonyl)-3-oxo-1,2,3,4-tetrahydroquinoxalin-2(R)-yl]-N-{2-[4-(4,5-dihydro-1H-imidazol-2-yl)-phenyl]-ethyl}-acetamide, reference compound] | < 100 nM | < 100 nM |
